# Values joined by “and” are separate entries in the source; they are usually repeats but may differ in a detail not shown here. Equal entries are not always repeated. “Also recorded” adds a separate entry of the source.
# How the values were obtained:
# [1] = system: Principal Bile Acids in Jejunum; test: Bile acid composition of jejunum after oral administration (GC-MS); assay type: in vivo, Sprague-Dawley rats; conditions: for UDCA mass in jejunum / Chenodeoxycholic acid mass in jejunum / Cholic acid mass in jejunum / Cholic acid percent of jejunal bile acids / Deoxycholic acid mass in jejunum / Deoxycholic acid percent of jejunal bile acids / Lithocholic acid mass in jejunum / Lithocholic acid percent of jejunal bile acids / Total bile acid mass in jejunum / UDCA percent of jejunal bile acids / Δ^22-UDCA mass in jejunum / Δ^22-UDCA percent of jejunal bile acids / Δ^22-β-Muricholic acid mass in jejunum / Δ^22-ω-Muricholic acid mass in jejunum / α-Muricholic acid mass in jejunum / β-Muricholic acid mass in jejunum / ω-Muricholic acid mass in jejunum: oral gavage 250 mg/day, 4 days, mean ± SEM; for UDCA mass in jejunum: 24 hours after final dose
# Description: (§1) Male Sprague-Dawley rats (Harlan Sprague-Dawley, Inc., Indianapolis, Ind.), weighing 210-290 g, were maintained on a 12-hour light-dark cycle and fed standard laboratory chow ad libitum for 3 days. The animals were then transferred to metabolic cages in which they were housed individually and fed the same diet. UDCA, UDCA 3-sulfate, UDCA 7-sulfate, and UDCA 3,7-disulfate were administered by gavage at a dose of 250 mg/day for 4 consecutive days. Each group comprised 3-6 rats. Body weights of the animals were measured each day. On day 5, the animals were killed by exsanguination under ether anesthesia. Plasma was collected and frozen at -20° C. The liver was removed, rinsed in normal saline, and flash-frozen in liquid nitrogen. Urine and feces were collected every 24 hours and frozen at -20° C. All animals received humane care in compliance with the "Guide for the Care and Use of Laboratory Animals" prepared by the National Academy of Sciences (National Institutes of Health publication no. 86-23, revised in 1985).
# Intestinal contents were weighed and dissected into small pieces. In each group, feces (100 mg) from all animals were pooled on day 4 of the study and then ground into a fine paste. All samples were sonicated and sequentially refluxed in 80% methanol for 2 hours and chloroform/methanol (1:1) for 1 hour. Samples were taken to dryness, and the dried extracts were resuspended in 80% methanol (20 mL). Fractions of the methanolic extract (1/40 of intestinal contents and 1/20 of feces samples) were removed and the internal standard nordeoxycholic acid (10 μg) was added. This extract was diluted with 0.01 mol/L acetic acid (20 mL) and passed first through a column of Lipidex 1000 (bed size, 4×1 cm; Packard Instrument Co., Groningen, The Netherlands) and then through a Bond-Elut C18, cartridge (Analytichem, Harbor City, Calif.). Bile acids were recovered by elution of the Lipidex 1000 column and the Bond-Elut cartridge with methanol (20 mL and 5 mL, respectively), and the combined extracts were taken to dryness. Unconjugated bile acids were isolated and separated from neutral sterol and conjugated bile acids by lipophilic anion exchange chromatography on diethylaminohydroxypropyl Sephadex LH-20 (Lipidex-DEAP; Package Instrument Co.). Recovery of unconjugated bile acids was achieved by elution with 0.1 mol/L acetic acid in 72% ethanol (7 mL) followed by evaporation of the solvents. Total conjugated bile acids were recovered with 9 mL of 0.3 mol/L acetic acid in 72% ethanol, pH 9.6. Salts were removed by passage through a Bond-Elut C18 cartridge after addition of nordeoxycholic acid (10 μg), and conjugated bile acids were recovered by elution with 5 mL of methanol. Solvolysis was performed in a mixture of methanol (1 mL), distilled tetrahydrofuran (9 mL), and 1 mol/L trifluoracetic acid in dioxane (0.1 mL) and heated to 45° C for 2 hours. After solvolysis, unconjugated bile acids were isolated by chromatography on Lipidex-DEAP. Methyl ester derivatives were prepared by dissolving the sample in methanol (0.3 mL) and reacting with 2.7 mL of freshly distilled ethereal diazomethane. After evaporation of the reagents, the methyl ester derivatives were converted to trimethylsilyl ethers by the addition of […] of Tri-Sil reagent (Pierce Chemicals, Rockford, Ill.). A column of Lipidex 5000 (Packard Instrument Co.) was used to remove derivatizing reagents and to purify the sample.
# Samples of liver (100 mg) were ground to a fine paste, and bile acids were extracted by reflux and passage through a column of Lipidex 1000 as described above for intestinal contents and feces. Group separation of bile acids, according to their mode of conjugation was achieved by lipophilic anion-exchange chromatography. […]
# [2] = system: Principal Bile Acids in Liver; test: Bile acid composition of liver tissue after oral administration (GC-MS); assay type: in vivo, Sprague-Dawley rats
# Description: as §1
# Samples of liver (100 mg) were ground to a fine paste, and bile acids were extracted by reflux and passage through a column of Lipidex 1000 as described above for intestinal contents and feces. Group separation of bile acids, according to their mode of conjugation was achieved by lipophilic anion-exchange chromatography. Extracts from each animal were pooled, and bile acids and their conjugates were separated using Lipidex-DEAP and stepwise elution of the gel bed with the following buffers: 0.1 mol/L acetic acid in 72% ethanol (unconjugated bile acids); 0.3 mol/L acetic acid in 72% ethanol, pH 5.0 (glycine conjugates); 0.15 mol/L acetic acid in 72% ethanol, pH 6.5 (taurine conjugates); and 0.3 mol/L acetic acid in 72% ethanol, pH 9.6 (sulfate conjugates). After evaporation of the buffers, sulfated bile acids were solvolyzed, whereas amidated conjugates were hydrolyzed with 50 U of cholylglycine hydrolase (Sigma Chemical Co.) in 2.5 mL of 0.2 mol/L phosphate buffer, pH 5.6, at 37° C. overnight. The resulting unconjugated bile acids were isolated on Lipidex-DEAP, and the methyl ester-trimethylsilyl ether derivatives were prepared as described above.
# GC-MS analysis was performed using a Finnigan 4635 mass spectrometer (Finnigan Inc., San Jose, Calif.) that housed an identical gas chromatography column operated under the same conditions. Electron ionization (70 eV) mass spectra were recorded over the mass range of 50-800 daltons by repetitive scanning of the eluting components. Identification of bile acids was made on the basis of the gas chromatography retention index relative to a homologous series of n-alkanes, referred to as the methylene unit value, and the mass spectrum compared with authentic standards. Quantification of bile acids was achieved using gas chromatography by comparing the peak height response of the individual bile acids with the peak height response obtained from the internal standard.
# Data are expressed as mean±SEM or as mean values of all animals when extracts were pooled before analysis. Results from different groups were compared using paired and unpaired two-tailed Student's t-test. P values of <0.05 were considered statistically significant.
# [3] = system: chemically induced colon cancer; conditions: in vivo; cited from earlier work
# [4] = system: serum liver enzymes; conditions: oral administration; cited from earlier work
structure (smiles),measurement,setting,value
"C[C@H](CCC(=O)O)[C@H]1CC[C@H]2[C@@H]3[C@@H](OS(=O)(=O)O)C[C@@H]4C[C@H](O)CC[C@]4(C)[C@H]3CC[C@]12C [UDCA-7S, ursodeoxycholic acid 7-sulfate]",UDCA mass in jejunum,[1]; listed as UDCA 7-SULFATE,1.09 mg
same,UDCA mass in jejunum,[1]; listed as UDCA 7-sulfate,1.09 ± 0.34 mg
same,Chenodeoxycholic acid mass in jejunum,[1],0.26 mg
same,Cholic acid mass in jejunum,[1],15.78 mg
same,Cholic acid percent of jejunal bile acids,[1],69.0%
same,Deoxycholic acid mass in jejunum,[1],0.76 mg
same,Deoxycholic acid percent of jejunal bile acids,[1],3.3%
same,Lithocholic acid mass in jejunum,[1],0.01 mg
same,Lithocholic acid percent of jejunal bile acids,[1],0.1%
same,Total bile acid mass in jejunum,[1],22.91 mg
same,UDCA percent of jejunal bile acids,[1],4.7%
same,Δ^22-UDCA mass in jejunum,[1],0.70 mg
same,Δ^22-UDCA percent of jejunal bile acids,[1],3.1%
same,Δ^22-β-Muricholic acid mass in jejunum,[1],1.49 mg
same,Δ^22-ω-Muricholic acid mass in jejunum,[1],0.26 mg
same,α-Muricholic acid mass in jejunum,[1],0.04 mg
same,β-Muricholic acid mass in jejunum,[1],2.21 mg
same,ω-Muricholic acid mass in jejunum,[1],0.31 mg
same,Chenodeoxycholic acid concentration in liver,"[2]; oral gavage 250 mg/day, 4 days",6.4 nmol/g
same,Chenodeoxycholic acid percent of hepatic bile acids,"[2]; oral gavage 250 mg/day, 4 days",1.9%
same,Cholic acid concentration in liver,"[2]; oral gavage 250 mg/day, 4 days",186.1 nmol/g
same,Cholic acid percent of hepatic bile acids,"[2]; oral gavage 250 mg/day, 4 days",56.0%
same,Deoxycholic acid concentration in liver,"[2]; oral gavage 250 mg/day, 4 days",14.9 nmol/g
same,Deoxycholic acid percent of hepatic bile acids,"[2]; oral gavage 250 mg/day, 4 days",4.5%
same,Lithocholic acid concentration in liver,"[2]; oral gavage 250 mg/day, 4 days",3.2 nmol/g
same,Lithocholic acid percent of hepatic bile acids,"[2]; oral gavage 250 mg/day, 4 days",1.0%
same,Total bile acid concentration in liver,"[2]; oral gavage 250 mg/day, 4 days",332.3 nmol/g
same,UDCA percent of hepatic bile acids,"[2]; oral gavage 250 mg/day, 4 days",1.8%
same,Δ^22-UDCA concentration in liver,"[2]; oral gavage 250 mg/day, 4 days",8.7 nmol/g
same,Δ^22-UDCA percent of hepatic bile acids,"[2]; oral gavage 250 mg/day, 4 days",2.6%
same,Δ^22-β-Muricholic acid concentration in liver,"[2]; oral gavage 250 mg/day, 4 days",59.8 nmol/g
same,Δ^22-β-Muricholic acid percent of hepatic bile acids,"[2]; oral gavage 250 mg/day, 4 days",18.0%
same,Δ^22-ω-Muricholic acid concentration in liver,"[2]; oral gavage 250 mg/day, 4 days",6.6 nmol/g
same,Δ^22-ω-Muricholic acid percent of hepatic bile acids,"[2]; oral gavage 250 mg/day, 4 days",2.0%
same,α-Muricholic acid concentration in liver,"[2]; oral gavage 250 mg/day, 4 days",0.4 nmol/g
same,α-Muricholic acid percent of hepatic bile acids,"[2]; oral gavage 250 mg/day, 4 days",0.1%
same,β-Muricholic acid concentration in liver,"[2]; oral gavage 250 mg/day, 4 days",36.1 nmol/g
same,β-Muricholic acid percent of hepatic bile acids,"[2]; oral gavage 250 mg/day, 4 days",10.8%
same,ω-Muricholic acid concentration in liver,"[2]; oral gavage 250 mg/day, 4 days",4.0 nmol/g
same,ω-Muricholic acid percent of hepatic bile acids,"[2]; oral gavage 250 mg/day, 4 days",1.2%
same,Hepatic UDCA concentration change (in words),"[2]; oral, vs control",low compared with the control animals
"C[C@H](CCC(=O)O)[C@H]1CC[C@H]2[C@@H]3[C@@H](O)C[C@@H]4C[C@H](O)CC[C@]4(C)[C@H]3CC[C@]12C [UDCA, 3 alpha, 7 beta-dihydroxy-5 beta-cholan-24oic acid, reference compound]",Δ^22 UDCA in jejunum (in words),[1]; oral,detected in large proportions and amounts
same,UDCA mass in jejunum,[1],9.95 mg and 9.95 ± 0.49 mg
same,Chenodeoxycholic acid mass in jejunum,[1],0.98 mg
same,Cholic acid mass in jejunum,[1],4.68 mg and 4.68 ± 0.65 mg
same,Cholic acid percent of jejunal bile acids,[1],16.8%
same,Deoxycholic acid mass in jejunum,[1],1.56 mg
same,Deoxycholic acid percent of jejunal bile acids,[1],5.6%
same,Lithocholic acid mass in jejunum,[1],0.26 mg
same,Lithocholic acid percent of jejunal bile acids,[1],1.0%
same,Total bile acid mass in jejunum,[1],27.77 mg
same,UDCA percent of jejunal bile acids,[1],35.9%
same,Δ^22-UDCA mass in jejunum,[1],4.00 mg
same,Δ^22-UDCA percent of jejunal bile acids,[1],14.5%
same,Δ^22-β-Muricholic acid mass in jejunum,[1],0.85 mg
same,Δ^22-ω-Muricholic acid mass in jejunum,[1],0.30 mg
same,α-Muricholic acid mass in jejunum,[1],0.75 mg
same,β-Muricholic acid mass in jejunum,[1],4.12 mg
same,ω-Muricholic acid mass in jejunum,[1],0.31 mg
same,Conjugation pattern of UDCA in jejunum,"[1]; oral, anion-exchange chromatography","predominantly glyco- and tauro-UDCA, smaller amounts of unconjugated UDCA, and negligible amounts of sulfated UDCA"
same,Effect in colon cancer models (in words),[3],beneficial effects
same,Serum liver enzymes (in words),[4],significant improvement in serum liver enzymes
same,Conjugation of UDCA in liver tissue,[2]; oral,"biotransformed by conjugation, mainly with taurine; also recorded: predominantly conjugated by amidation"
same,Fold decrease of liver tissue cholic acid concentration,[2]; oral,~4 fold
same,Chenodeoxycholic acid concentration in liver,"[2]; oral gavage 250 mg/day, 4 days",12.4 nmol/g
same,Chenodeoxycholic acid percent of hepatic bile acids,"[2]; oral gavage 250 mg/day, 4 days",3.7%
same,Cholic acid concentration in liver,"[2]; oral gavage 250 mg/day, 4 days",42.3 nmol/g
same,Cholic acid percent of hepatic bile acids,"[2]; oral gavage 250 mg/day, 4 days",12.7%
same,Deoxycholic acid concentration in liver,"[2]; oral gavage 250 mg/day, 4 days",22.5 nmol/g
same,Deoxycholic acid percent of hepatic bile acids,"[2]; oral gavage 250 mg/day, 4 days",6.8%
same,Lithocholic acid concentration in liver,"[2]; oral gavage 250 mg/day, 4 days",8.0 nmol/g
same,Lithocholic acid percent of hepatic bile acids,"[2]; oral gavage 250 mg/day, 4 days",2.4%
same,Total bile acid concentration in liver,"[2]; oral gavage 250 mg/day, 4 days",331.8 nmol/g
same,UDCA concentration in liver,"[2]; oral gavage 250 mg/day, 4 days",99.6 nmol/g
same,UDCA percent of hepatic bile acids,"[2]; oral gavage 250 mg/day, 4 days",30.0%
same,Δ^22-UDCA concentration in liver,"[2]; oral gavage 250 mg/day, 4 days",37.4 nmol/g
same,Δ^22-UDCA percent of hepatic bile acids,"[2]; oral gavage 250 mg/day, 4 days",11.3%
same,Δ^22-β-Muricholic acid concentration in liver,"[2]; oral gavage 250 mg/day, 4 days",20.9 nmol/g
same,Δ^22-β-Muricholic acid percent of hepatic bile acids,"[2]; oral gavage 250 mg/day, 4 days",6.3%
same,Δ^22-ω-Muricholic acid concentration in liver,"[2]; oral gavage 250 mg/day, 4 days",4.8 nmol/g
same,Δ^22-ω-Muricholic acid percent of hepatic bile acids,"[2]; oral gavage 250 mg/day, 4 days",1.4%
same,α-Muricholic acid concentration in liver,"[2]; oral gavage 250 mg/day, 4 days",16.1 nmol/g
same,α-Muricholic acid percent of hepatic bile acids,"[2]; oral gavage 250 mg/day, 4 days",4.8%
same,β-Muricholic acid concentration in liver,"[2]; oral gavage 250 mg/day, 4 days",60.6 nmol/g
same,β-Muricholic acid percent of hepatic bile acids,"[2]; oral gavage 250 mg/day, 4 days",18.3%
same,ω-Muricholic acid concentration in liver,"[2]; oral gavage 250 mg/day, 4 days",6.3 nmol/g
same,ω-Muricholic acid percent of hepatic bile acids,"[2]; oral gavage 250 mg/day, 4 days",1.9%
same,Hepatic UDCA concentration change (in words),"[2]; oral, vs control",increased concentrations and proportions of liver tissue UDCA; also recorded: increased markedly
same,Hepatic lithocholic acid change (in words),"[2]; oral, vs control",increased hepatic lithocholic acid concentration

# Reference: patent publication US5763435A, “Sulfate conjugates of ursodeoxycholic acid, and their beneficial use in inflammatory disorders” (priority 1995, dated 1998)
